Results taken from patent US12357691B2, “Antibodies specifically binding to CD147 and uses thereof” (Alphelix Biotech Co., Ltd., priority 2022, dated 2025).

How the values were obtained:
[1] = tested on: patient-derived NSCLC organoid; test: Organoid drug response assay (CellTiter-Glo); format: cell-based, human; settings: three days of drug incubation; three patient models
Protocol: All procedures performed involving human participants were approved by the Ethics Committee of Shanghai Jiao Tong University School of Medicine and were in accordance with the ethical standards of Helsinki Declaration (as revised in 2013). All the donors signed an informed consent form. Freshly excised tumor samples from patients were kept in MACS tissue storage solution (Miltenyi) at 4° C. upon harvest. Tumor tissues were minced into small pieces on ice, then incubated with 0.001% DNase (Sigma-Aldrich, MO, USA), 1 mg/mL collagenase/dispase (Roche, IN, USA), 200 U/mL penicillin, […], and […] amphotericin B (2% antibiotics, Sigma) in DMEM/F12 medium (Thermofisher) at 37° C. for three hours with gentle agitation and intermittent resuspension. Thereafter, the digested tissue suspension was repeatedly triturated via pipetting and passed through a 70 μm filter. The strained suspension was centrifuged at 112×g for three minutes, and red blood cells were lysed using lysis buffer (00443357, Thermofisher) for five minutes. […]
The organoids cultured over two weeks were harvested and dissociated using 1× TrypLe (Thermofisher). […] The plates were agitated for 30 minutes at room temperature (10° C.-30° C.) prior to measuring luminescence.

[2] = tested on: peripheral blood mononuclear cells (PBMC); test: Toxicity on patients' PBMC; format: cell-based, human
Protocol: Then, treating organoids in presence of 5 μg/mL pembrolizumab, in combination with either of these agents (AZD3965 at 0.1 μM, GSK2837808A at 1 μM, and WZHAb10 at 0.0006 μM) and each PBMC (FIGS. 18, 19 and 20). IgG was used as control in FIG. 18, IgG and/or vehicle were used as control in FIGS. 19-20.

WT MCT1/BSG-2 (mouse) = WT MCT1/BSG-2 (mouse) (UniProt P53986)
WT MCT4/BSG-2 (mouse) = WT MCT4/BSG-2 (mouse) (UniProt P57787)

transport activity (H+ influx, H+-pyruvate symport in proteoliposomes) (WT MCT1/BSG-2 (mouse)) [%]	transport activity (H+ influx, H+-L-lactate symport in proteoliposomes) (WT MCT4/BSG-2 (mouse)) [%]	Molecule	anti-proliferative effect of single agent on organoids [1]	effect on T cell growth (PBMC) ([2]; at 0.1 μM)	effect on T cell growth (PBMC) ([2]; at 1 μM)
–	–	Cc1[nH]nc(C(F)(F)F)c1Cc1sc2c(c1C(=O)N1C[C@](C)(O)CO1)c(=O)n(C)c(=O)n2C(C)C [AZD3965]	moderate anti-proliferative effect	little effects on T cell growth	–
–	–	COc1ncc(-c2ccc3c(Nc4cc(Oc5cc(F)cc(F)c5)cc(C(=O)O)c4)c(S(=O)(=O)NC4CC4)cnc3c2)c(OC)n1 [GSK2837808A]	moderate anti-proliferative effect	–	little effects on T cell growth
75	50	WZHAb10 (antibody, V domains shown) VH: QVQLVQSGAEVKKPGASVKVSCKASGYTFTNYWIHWVRQAPGQGLEWMGMIHPNSGSINYNEKFKTRVTMTRDTSTSTVYMELSSLRSEDTAVYYCARVGSGSLDYWGQGTLVTVSS VL: EIVLTQSPATLSLSPGERATLSCRASQSISDYLHWYQQKPGQAPRLLIKYVSQSISGIPARFSGSGSGTYFTLTISSLEPEDVAVYYCQNGEEAPYTFGQGTKLEIKR	–	–	–
